Read-outs that look alike come from different tables or passages of the source.
Columns and labels:
[1] = tested on: human umbilical vein endothelial cells (HUVEC); assay: Impedimetric measurement (xCELLigence SP), delta slope, HUVEC; conditions: for delta slope (DS), short-term / delta slope (DS), long-term: HUVEC, three parallels; for delta slope (DS), short-term: 0–2 h; for delta slope (DS), long-term: 0–72 h
Description: (§1) The main objective of the study reported here was to evaluate the in vitro cardiotoxic effects (as undesired side effects) of […] GnRH-III-based conjugates containing doxorubicin, daunorubicin and methotrexate on two essential target cells of cardiovascular diseases: vascular endothelial cells and cardiomyocytes. The rate of cytotoxicity (antitumor effect) vs cardiotoxicity (toxic effects on cardiomyocytes and vascular endothelium) is an important factor for efficient drug development for targeted tumor therapy with minimized side effects. The technique used in this work – impedimetry – is a dedicated one for real-time monitoring of cells to distinguish short-term (0–2 hours) and long-term (0–72 hours) effects elicited by the drug or carrier–drug conjugates. The basic theory of impedimetry is that proliferation/viability of cells is well detectable by monitoring of the electric impedance (Z) in an AC environment, due to the electric insulator character of intact surface membranes composed of the phospholipid bilayer. […] While cell physiological responses of short-term exposures result in characteristic changes of cell morphology (e.g., spreading), long-term effects characteristically influence in particular the proliferation of cells, and therefore the cytotoxic effects. The presented dimensionless values of delta slope (DS) measure the difference between the slope of the curve corresponding to the treatment and that of the control curve in impedimetric recordings, the negative signs refer to the relative values to the identical control.
(§2) Experimental part – Cellular samples
(§3) In the present study, GnRH conjugates containing anti-tumour drugs (e.g., daunorubicin, doxorubicin) were investigated in order to evaluate whether the conjugates exert a decrease cardiotoxic effect compared to that of the free drugs. The cardiac myocytes and the vascular endothelium cells are the most frequently detected target cells of antitumor compounds and they are employed in our study. Human umbilical vein endothelial cells (HUVEC; Promocell, Biomedica, Wien, Austria) were cultured in Endothelial Cell Growth Medium with Endothelial Cell Growth Supplement Mix (Promocell, Biomedica, Wien, Austria) and 100 µg/mL penicillin/streptomycin. Primary human cardiac myocytes (HCM; Promocell, Biomedica, Wien, Austria) were cultured in Myocyte Growth Medium (Promocell, Biomedica, Wien, Austria).
(§4) Impedimetric measurements
(§5) The xCELLigence SP system was used for impedimetric measurements. The bottom of the wells of a 96-well E-plate is installed with a golden electrode array that constitutes the adhesion surface. Adhering cells – acting as insulators – change the electric impedance measured on the electrodes. The measured impedance change is in direct correlation with the number of adhering cells and the extent of adhesion. The results of impedance change are given in the form of Cell Index (CI) calculated by the xCELLigence system according to the […]
(§6) where Zt is the measured impedance in a time point, Zb is the background impedance and F is an inbuilt factor (F = 15 at 10 kHz) depending on the frequency of the alternating current. The measurements took place in an incubator holding a 37 °C temperature and 5% carbon-dioxide […]
(§7) The experiments started with a measurement of baseline impedance for 1 hour. After that, the cells (10^4 cells/well) were added to the wells and allowed to adhere to the electrodes. When the adhering cells reached a balanced state in the wells, signified by the impedance curves […]
(§8) free drugs at 10−12 – 10−6 M and the conjugates at 10−8 – 10−6 M final concentrations were […]
(§9) added to the wells. The changes in impedance were measured for at least 72 hours. For each measurement three parallels were measured.
(§10) The evaluation of responses followed the previously described strategy: acute effects of compounds were evaluated as a characteristic morphology of the curves in the 0–2 hours

[2] = tested on: primary human cardiac myocytes (HCM); conditions: for delta slope (DS), short-term / delta slope (DS), long-term: HCM, three parallels; for delta slope (DS), short-term: 0–2 h; for delta slope (DS), long-term: 0–72 h; for cytotoxic effect on HCM, result in words: long-term (0–72 h), 10^−8–10^−6 mol/L (free drugs 10^−12–10^−6 mol/L), impedimetry, one-way ANOVA
Description: as §1, §2, §3, §4, §5, §6, §7, §8, §9, §10

[3] = tested on: HT-29 human colon adenocarcinoma cells; conditions: MTT assay; cited from earlier work
Description: (§11) Table 1 Comparative study of cytotoxic effects and cardiotoxicity elicited by GnRH-based antitumor compounds (1–15) and reference substances (AN-152, Dox, Dau, Mtx). IC50 values show antitumor cytotoxic characteristics of the conjugates in human breast cancer (MCF-7), human colorectal adenocarcinoma (HT-29) and human acute monocytic leukemia (MM6) derived cell lines as representative tumor cells.

[4] = tested on: MCF-7 human breast adenocarcinoma cells; conditions: MTT assay; cited from earlier work
Description: as §11

[5] = tested on: human acute monocytic leukemia (MonoMac6) cells; conditions: cited from earlier work
Description: as §11

[6] = grade +++/++/+/0, key not given, summary of impedimetric cytotoxicity

## GnRH-III(Dox-O-glut) [conjugate 1]
[1]; Table S2a, 10^-6 mol/L
  delta slope (DS), short-term: 0.038
[1]; Table S2a, 10^-7 mol/L
  delta slope (DS), short-term: 0.016
[1]; Table S2a, 10^-8 mol/L
  delta slope (DS), short-term: -0.011
  delta slope (DS), long-term: -0.003
[1]; Table S2a, 10^-6 mol/L, listed as 1
  delta slope (DS), long-term: -0.054
[1]; Table S2a, 10^-6 mol/L, listed as GnRH-III(Dox-O-glut)
  delta slope (DS), long-term: −0.054
[1]; Table S2a, 10^-7 mol/L, listed as 1
  delta slope (DS), long-term: -0.028
[1]; Table S2a, 10^-7 mol/L, listed as GnRH-III(Dox-O-glut)
  delta slope (DS), long-term: −0.028
[2]; Table S2b, 10^-6 mol/L
  delta slope (DS), short-term: 0.012
  delta slope (DS), long-term: −0.025
[2]; Table S2b, 10^-7 mol/L
  delta slope (DS), short-term: 0.002
[2]; Table S2b, 10^-8 mol/L
  delta slope (DS), short-term: 0.001
  delta slope (DS), long-term: −0.002
[3]
  IC50: 2.4 ± 0.2 µM
[4]
  IC50: 0.1 ± 0.1 µM
[5]
  IC50: 0.039 ± 0.01 µM

## GnRH-III(Dox=Aoa-GFLG) [conjugate 3]
[1]; Table S2a, 10^-6 mol/L
  delta slope (DS), short-term: -0.006
[1]; Table S2a, 10^-7 mol/L
  delta slope (DS), short-term: -0.003
  delta slope (DS), long-term: -0.001
[1]; Table S2a, 10^-8 mol/L
  delta slope (DS), short-term: -0.002
  delta slope (DS), long-term: 0.0004
[1]; Table S2a, 10^-6 mol/L, listed as 3
  delta slope (DS), long-term: -0.009
[1]; Table S2a, 10^-6 mol/L, listed as GnRH-III(Dox=Aoa-GFLG)
  delta slope (DS), long-term: −0.009
[2]; Table S2b, 10^-6 mol/L
  delta slope (DS), short-term: -0.002
  delta slope (DS), long-term: −0.007
[2]; Table S2b, 10^-7 mol/L
  delta slope (DS), short-term: 0.001
  delta slope (DS), long-term: -0.001
[2]; Table S2b, 10^-8 mol/L
  delta slope (DS), short-term: 0.004
  delta slope (DS), long-term: 0.002
[3]
  IC50: 46.1 ± 6.1 µM
[4]
  IC50: 5.4 ± 1.9 µM
[5]
  IC50: 0.43 ± 0.04 µM

## GnRH-III(Dau=Aoa-GFLG) [conjugate 7]
[1]; Table S4a, 10^-6 mol/L
  delta slope (DS), short-term: 0.003
  delta slope (DS), long-term: −0.013
[1]; Table S4a, 10^-7 mol/L
  delta slope (DS), short-term: -0.012
  delta slope (DS), long-term: 0.001
[1]; Table S4a, 10^-8 mol/L
  delta slope (DS), short-term: -0.002
  delta slope (DS), long-term: -0.001
[2]; Table S4b, 10^-6 mol/L
  delta slope (DS), short-term: 0.003
  delta slope (DS), long-term: -0.002
[2]; Table S4b, 10^-7 mol/L
  delta slope (DS), short-term: -0.001
  delta slope (DS), long-term: -0.002
[2]; Table S4b, 10^-8 mol/L
  delta slope (DS), short-term: -0.001
  delta slope (DS), long-term: 0.001
[2]
  cytotoxic effect on HCM, result in words: completely lost their cytotoxic effect
[3]
  IC50: 22.5 ± 1.7 µM
[4]
  IC50: 3.9 ± 1.2 µM
[5]
  IC50: 0.894 ± 0.25 µM

## COc1cccc2c1C(=O)c1c(O)c3c(c(O)c1C2=O)C[C@@](O)(C(=O)CO)C[C@@H]3O[C@H]1C[C@H](N)[C@H](O)[C@H](C)O1 [doxorubicin]
[1]
  Cardiotoxicity, HUVEC: +++
[1]; Table S1a, 10^-6 mol/L
  delta slope (DS), short-term: 0.063
[1]; Table S1a, 10^-7 mol/L
  delta slope (DS), short-term: 0.037
[1]; Table S1a, 10^-8 mol/L
  delta slope (DS), short-term: -0.008
[1]; Table S1a, 10^-9 mol/L
  delta slope (DS), short-term: 0.003
[1]; Table S1a, 10^-10 mol/L
  delta slope (DS), short-term: -0.004
[1]; Table S1a, 10^-11 mol/L
  delta slope (DS), short-term: 0.021
[1]; Table S1a, 10^-12 mol/L
  delta slope (DS), short-term: 0.008
[1]; Table S2a, 10^-6 mol/L
  delta slope (DS), short-term: 0.012
[1]; Table S2a, 10^-7 mol/L
  delta slope (DS), short-term: 0.032
[1]; Table S2a, 10^-8 mol/L
  delta slope (DS), short-term: 0.002
[2]
  Cardiotoxicity, HCM: +++
[2]; Table S1b, 10^-6 mol/L
  delta slope (DS), short-term: 0.019
[2]; Table S1b, 10^-7 mol/L
  delta slope (DS), short-term: 0.003
[2]; Table S1b, 10^-8 mol/L
  delta slope (DS), short-term: 0.001
[2]; Table S1b, 10^-9 mol/L
  delta slope (DS), short-term: -0.001
[2]; Table S1b, 10^-10 mol/L
  delta slope (DS), short-term: 0.002
[2]; Table S1b, 10^-11 mol/L
  delta slope (DS), short-term: 0.002
[2]; Table S1b, 10^-12 mol/L
  delta slope (DS), short-term: 0.001
[2]; Table S2b, 10^-6 mol/L
  delta slope (DS), short-term: 0.057
[2]; Table S2b, 10^-7 mol/L
  delta slope (DS), short-term: -0.001
[2]; Table S2b, 10^-8 mol/L
  delta slope (DS), short-term: 0.001
[3]
  IC50: 0.1 µM
[4]
  IC50: 0.1 µM
[5]
  IC50: 0.007 ± 0.0001 µM

## GnRH-III(Mtx-K(Dau=Aoa)) [conjugate 13]
[1]; Table S5a, 10^-6 mol/L
  delta slope (DS), short-term: 0.013
  delta slope (DS), long-term: 0.001
[1]; Table S5a, 10^-7 mol/L
  delta slope (DS), short-term: 0.002
  delta slope (DS), long-term: 0.001
[1]; Table S5a, 10^-8 mol/L
  delta slope (DS), short-term: 0.001
  delta slope (DS), long-term: -0.001
[1]; [6]
  Cardiotoxicity, HUVEC: 0
[1]; long-term (0–72 h), 10^−8–10^−6 mol/L, impedimetry, one-way ANOVA
  cytotoxic effect on HUVEC, result in words: no significant effect was detected
[2]; Table S5b, 10^-6 mol/L
  delta slope (DS), short-term: -0.003
  delta slope (DS), long-term: -0.001
[2]; Table S5b, 10^-7 mol/L
  delta slope (DS), short-term: 0.002
  delta slope (DS), long-term: -0.001
[2]; Table S5b, 10^-8 mol/L
  delta slope (DS), short-term: -0.002
  delta slope (DS), long-term: -0.001
[2]; [6]
  Cardiotoxicity, HCM: 0
[2]
  cytotoxic effect on HCM, result in words: none of the two investigated mixed drug–GnRH-III conjugates (13 and 15) exerted any significant cytotoxic effect
[3]
  IC50: 5.6 ± 3 µM
[4]
  IC50: 5.4 ± 0.7 µM
[5]
  IC50: 1.41 ± 0.39 µM
